± gives the expanded uncertainty stated by the source.
Assay: mn = molality of the nth substance listed, in mol/kg
Conditions: 100 kPa, Liquid; for speed of sound: Frequency=3 MHz, Single path-length method; for mass density: Vibrating tube method

Structure (SMILES): CCCCCn1cc[n+](C)c1.[Br-] [1-pentyl-3-methylimidazolium bromide] + O
- speed of sound (288.15 K, m1 = 0.005): 1467.7 ± 1 m/s
- speed of sound (288.15 K, m1 = 0.01): 1468.5 ± 1 m/s
- speed of sound (288.15 K, m1 = 0.03): 1470.8 ± 1 m/s
- speed of sound (288.15 K, m1 = 0.05): 1473.7 ± 1 m/s
- mass density (288.15 K, m1 = 0.005): 999.3 ± 0.3 kg/m3
- mass density (288.15 K, m1 = 0.01): 999.5 ± 0.3 kg/m3
- mass density (288.15 K, m1 = 0.03): 1000.31 ± 0.3 kg/m3
- mass density (288.15 K, m1 = 0.05): 1001.11 ± 0.3 kg/m3
- speed of sound (298.15 K, m1 = 0.005): 1497.3 ± 1 m/s
- speed of sound (298.15 K, m1 = 0.01): 1498 ± 1 m/s
- speed of sound (298.15 K, m1 = 0.03): 1500.3 ± 1 m/s
- speed of sound (298.15 K, m1 = 0.05): 1502.8 ± 1 m/s
- mass density (298.15 K, m1 = 0.005): 997.23 ± 0.3 kg/m3
- mass density (298.15 K, m1 = 0.01): 997.42 ± 0.3 kg/m3
- mass density (298.15 K, m1 = 0.03): 998.19 ± 0.3 kg/m3
- mass density (298.15 K, m1 = 0.05): 998.96 ± 0.3 kg/m3
- speed of sound (308.15 K, m1 = 0.005): 1520.3 ± 1 m/s
- speed of sound (308.15 K, m1 = 0.01): 1520.7 ± 1 m/s
- speed of sound (308.15 K, m1 = 0.03): 1522.5 ± 1 m/s
- speed of sound (308.15 K, m1 = 0.05): 1524.6 ± 1 m/s
- mass density (308.15 K, m1 = 0.005): 994.23 ± 0.3 kg/m3
- mass density (308.15 K, m1 = 0.01): 994.42 ± 0.3 kg/m3
- mass density (308.15 K, m1 = 0.03): 995.2 ± 0.3 kg/m3
- mass density (308.15 K, m1 = 0.05): 995.98 ± 0.3 kg/m3
- speed of sound (318.15 K, m1 = 0.005): 1536.7 ± 1 m/s
- speed of sound (318.15 K, m1 = 0.01): 1537.4 ± 1 m/s
- speed of sound (318.15 K, m1 = 0.03): 1539.1 ± 1 m/s
- speed of sound (318.15 K, m1 = 0.05): 1541 ± 1 m/s
- mass density (318.15 K, m1 = 0.005): 990.42 ± 0.3 kg/m3
- mass density (318.15 K, m1 = 0.01): 990.62 ± 0.3 kg/m3
- mass density (318.15 K, m1 = 0.03): 991.41 ± 0.3 kg/m3
- mass density (318.15 K, m1 = 0.05): 992.21 ± 0.3 kg/m3

Structure (SMILES): N[C@@H](CS)C(=O)O [(R)-2-amino-3-mercaptopropanoic acid] + O
- speed of sound (288.15 K, m1 = 0.09747): 1474 ± 1 m/s
- speed of sound (288.15 K, m1 = 0.1985): 1481.8 ± 1 m/s
- speed of sound (288.15 K, m1 = 0.2986): 1489.5 ± 1 m/s
- speed of sound (288.15 K, m1 = 0.3968): 1497.1 ± 1 m/s
- speed of sound (288.15 K, m1 = 0.4932): 1504.5 ± 1 m/s
- speed of sound (288.15 K, m1 = 0.6): 1512.7 ± 1 m/s
- speed of sound (288.15 K, m1 = 0.6922): 1519.8 ± 1 m/s
- mass density (288.15 K, m1 = 0.09747): 1003.7 ± 0.3 kg/m3
- mass density (288.15 K, m1 = 0.1985): 1008.47 ± 0.31 kg/m3
- mass density (288.15 K, m1 = 0.2986): 1013.2 ± 0.31 kg/m3
- mass density (288.15 K, m1 = 0.3968): 1017.83 ± 0.31 kg/m3
- mass density (288.15 K, m1 = 0.4932): 1022.38 ± 0.32 kg/m3
- mass density (288.15 K, m1 = 0.6): 1027.42 ± 0.33 kg/m3
- mass density (288.15 K, m1 = 0.6922): 1031.77 ± 0.34 kg/m3
- speed of sound (298.15 K, m1 = 0.09747): 1503.6 ± 1 m/s
- speed of sound (298.15 K, m1 = 0.1985): 1510.9 ± 1 m/s
- speed of sound (298.15 K, m1 = 0.2986): 1518 ± 1 m/s
- speed of sound (298.15 K, m1 = 0.3968): 1525.1 ± 1 m/s
- speed of sound (298.15 K, m1 = 0.4932): 1532 ± 1 m/s
- speed of sound (298.15 K, m1 = 0.6): 1539.6 ± 1 m/s
- speed of sound (298.15 K, m1 = 0.6922): 1546.2 ± 1 m/s
- mass density (298.15 K, m1 = 0.09747): 1001.64 ± 0.3 kg/m3
- mass density (298.15 K, m1 = 0.1985): 1006.41 ± 0.31 kg/m3
- mass density (298.15 K, m1 = 0.2986): 1011.13 ± 0.31 kg/m3
- mass density (298.15 K, m1 = 0.3968): 1015.77 ± 0.31 kg/m3
- mass density (298.15 K, m1 = 0.4932): 1020.32 ± 0.32 kg/m3
- mass density (298.15 K, m1 = 0.6): 1025.36 ± 0.33 kg/m3
- mass density (298.15 K, m1 = 0.6922): 1029.71 ± 0.34 kg/m3
- speed of sound (308.15 K, m1 = 0.09747): 1525.8 ± 1 m/s
- speed of sound (308.15 K, m1 = 0.1985): 1532.2 ± 1 m/s
- speed of sound (308.15 K, m1 = 0.2986): 1538.6 ± 1 m/s
- speed of sound (308.15 K, m1 = 0.3968): 1544.9 ± 1 m/s
- speed of sound (308.15 K, m1 = 0.4932): 1551 ± 1 m/s
- speed of sound (308.15 K, m1 = 0.6): 1557.8 ± 1 m/s
- speed of sound (308.15 K, m1 = 0.6922): 1563.6 ± 1 m/s
- mass density (308.15 K, m1 = 0.09747): 998.63 ± 0.3 kg/m3
- mass density (308.15 K, m1 = 0.1985): 1003.4 ± 0.31 kg/m3
- mass density (308.15 K, m1 = 0.2986): 1008.12 ± 0.31 kg/m3
- mass density (308.15 K, m1 = 0.3968): 1012.76 ± 0.31 kg/m3
- mass density (308.15 K, m1 = 0.4932): 1017.31 ± 0.32 kg/m3
- mass density (308.15 K, m1 = 0.6): 1022.35 ± 0.33 kg/m3
- mass density (308.15 K, m1 = 0.6922): 1026.7 ± 0.34 kg/m3
- speed of sound (318.15 K, m1 = 0.09747): 1541.9 ± 1 m/s
- speed of sound (318.15 K, m1 = 0.1985): 1547.8 ± 1 m/s
- speed of sound (318.15 K, m1 = 0.2986): 1553.6 ± 1 m/s
- speed of sound (318.15 K, m1 = 0.3968): 1559.3 ± 1 m/s
- speed of sound (318.15 K, m1 = 0.4932): 1564.8 ± 1 m/s
- speed of sound (318.15 K, m1 = 0.6): 1571 ± 1 m/s
- speed of sound (318.15 K, m1 = 0.6922): 1576.4 ± 1 m/s
- mass density (318.15 K, m1 = 0.09747): 994.82 ± 0.3 kg/m3
- mass density (318.15 K, m1 = 0.1985): 999.59 ± 0.31 kg/m3
- mass density (318.15 K, m1 = 0.2986): 1004.32 ± 0.31 kg/m3
- mass density (318.15 K, m1 = 0.3968): 1008.96 ± 0.31 kg/m3
- mass density (318.15 K, m1 = 0.4932): 1013.51 ± 0.32 kg/m3
- mass density (318.15 K, m1 = 0.6): 1018.55 ± 0.33 kg/m3
- mass density (318.15 K, m1 = 0.6922): 1022.9 ± 0.34 kg/m3

Structure (SMILES): CC(=O)N[C@@H](CS)C(=O)O [N-acetyl-L-cysteine] + O
- speed of sound (288.15 K, m1 = 0.09902): 1472.9 ± 1 m/s
- speed of sound (288.15 K, m1 = 0.1981): 1479.4 ± 1 m/s
- speed of sound (288.15 K, m1 = 0.2976): 1485.8 ± 1 m/s
- speed of sound (288.15 K, m1 = 0.397): 1492.3 ± 1 m/s
- speed of sound (288.15 K, m1 = 0.4992): 1498.9 ± 1 m/s
- speed of sound (288.15 K, m1 = 0.5991): 1505.4 ± 1 m/s
- speed of sound (288.15 K, m1 = 0.6903): 1511.3 ± 1 m/s
- mass density (288.15 K, m1 = 0.09902): 1003.53 ± 0.3 kg/m3
- mass density (288.15 K, m1 = 0.1981): 1007.96 ± 0.31 kg/m3
- mass density (288.15 K, m1 = 0.2976): 1012.41 ± 0.31 kg/m3
- mass density (288.15 K, m1 = 0.397): 1016.85 ± 0.32 kg/m3
- mass density (288.15 K, m1 = 0.4992): 1021.42 ± 0.32 kg/m3
- mass density (288.15 K, m1 = 0.5991): 1025.88 ± 0.33 kg/m3
- mass density (288.15 K, m1 = 0.6903): 1029.96 ± 0.34 kg/m3
- speed of sound (298.15 K, m1 = 0.09902): 1501.8 ± 1 m/s
- speed of sound (298.15 K, m1 = 0.1981): 1507 ± 1 m/s
- speed of sound (298.15 K, m1 = 0.2976): 1512.3 ± 1 m/s
- speed of sound (298.15 K, m1 = 0.397): 1517.5 ± 1 m/s
- speed of sound (298.15 K, m1 = 0.4992): 1522.9 ± 1 m/s
- speed of sound (298.15 K, m1 = 0.5991): 1528.2 ± 1 m/s
- speed of sound (298.15 K, m1 = 0.6903): 1533 ± 1 m/s
- mass density (298.15 K, m1 = 0.09902): 1001.37 ± 0.3 kg/m3
- mass density (298.15 K, m1 = 0.1981): 1005.7 ± 0.31 kg/m3
- mass density (298.15 K, m1 = 0.2976): 1010.05 ± 0.31 kg/m3
- mass density (298.15 K, m1 = 0.397): 1014.39 ± 0.31 kg/m3
- mass density (298.15 K, m1 = 0.4992): 1018.86 ± 0.32 kg/m3
- mass density (298.15 K, m1 = 0.5991): 1023.22 ± 0.33 kg/m3
- mass density (298.15 K, m1 = 0.6903): 1027.21 ± 0.34 kg/m3
- speed of sound (308.15 K, m1 = 0.09902): 1523.8 ± 1 m/s
- speed of sound (308.15 K, m1 = 0.1981): 1527.9 ± 1 m/s
- speed of sound (308.15 K, m1 = 0.2976): 1532.1 ± 1 m/s
- speed of sound (308.15 K, m1 = 0.397): 1536.3 ± 1 m/s
- speed of sound (308.15 K, m1 = 0.4992): 1540.6 ± 1 m/s
- speed of sound (308.15 K, m1 = 0.5991): 1544.8 ± 1 m/s
- speed of sound (308.15 K, m1 = 0.6903): 1548.6 ± 1 m/s
- mass density (308.15 K, m1 = 0.09902): 998.26 ± 0.3 kg/m3
- mass density (308.15 K, m1 = 0.1981): 1002.49 ± 0.31 kg/m3
- mass density (308.15 K, m1 = 0.2976): 1006.74 ± 0.31 kg/m3
- mass density (308.15 K, m1 = 0.397): 1010.98 ± 0.31 kg/m3
- mass density (308.15 K, m1 = 0.4992): 1015.35 ± 0.32 kg/m3
- mass density (308.15 K, m1 = 0.5991): 1019.61 ± 0.33 kg/m3
- mass density (308.15 K, m1 = 0.6903): 1023.51 ± 0.34 kg/m3
- speed of sound (318.15 K, m1 = 0.09902): 1539.8 ± 1 m/s
- speed of sound (318.15 K, m1 = 0.1981): 1543.2 ± 1 m/s
- speed of sound (318.15 K, m1 = 0.2976): 1546.7 ± 1 m/s
- speed of sound (318.15 K, m1 = 0.397): 1550.2 ± 1 m/s
- speed of sound (318.15 K, m1 = 0.4992): 1553.8 ± 1 m/s
- speed of sound (318.15 K, m1 = 0.5991): 1557.3 ± 1 m/s
- speed of sound (318.15 K, m1 = 0.6903): 1560.5 ± 1 m/s
- mass density (318.15 K, m1 = 0.09902): 994.33 ± 0.3 kg/m3
- mass density (318.15 K, m1 = 0.1981): 998.44 ± 0.31 kg/m3
- mass density (318.15 K, m1 = 0.2976): 1002.57 ± 0.31 kg/m3
- mass density (318.15 K, m1 = 0.397): 1006.7 ± 0.31 kg/m3
- mass density (318.15 K, m1 = 0.4992): 1010.94 ± 0.32 kg/m3
- mass density (318.15 K, m1 = 0.5991): 1015.09 ± 0.33 kg/m3
- mass density (318.15 K, m1 = 0.6903): 1018.87 ± 0.34 kg/m3
